Measurements as given in article PMC3820767, “Turning Defense into Offense: Defensin Mimetics as Novel Antibiotics Targeting Lipid II” (PLoS Pathogens, 2013).
Read-outs that look alike come from different tables or passages of the source.

How the values were obtained:
[1] = Surface Plasmon Resonance binding to immobilized 3-Lipid II; conditions: SPR; for Binding on Lipid II?: Table S3, initial determination at 10 µM
Procedure: Surface Plasmon Resonance binding experiments were carried out on a BIAcore T100 system (BIAcore Inc., Piscataway, NY) at 25°C. The assay buffer was 10 mM HEPES, 150 mM NaCl, 0.05% surfactant P20, pH 7.4 (±3 mM EDTA) supplemented with 10% DMSO. […] For initial determination of binding, defensin mimetics were introduced into the flow-cells (30 µl/min) in the running buffer at 10 µM. Resonance signals were corrected for nonspecific binding by subtracting the background of the control flow-cell. After each analysis, the sensor chip surfaces were regenerated with 50 mM NaOH for 30 s at a flow rate 100 µl/min, and equilibrated with the buffer prior to next injection. For binding kinetics studies, binding isotherms were analyzed with manufacturer-supplied software for BIAcore T100.

Caco-2 = assay: Cytotoxicity by MTT assay; format: cell-based, human
[2] = system: Staphylococcus aureus ATCC 29213; assay: Antibacterial killing, 96-well turbidimetric (modified vCC) assay; format: cell-based; conditions: Table S3; concentration at which 100% killing occurred, no bacterial regrowth; No = not active
Procedure: (§1) The antibacterial activity of defensin mimetics against Staphylococcus aureus ATCC 29213 and Escherichia coli 25922 was carried out in a 96-well turbidimetric assay essentially as described previously with the following modifications: bacteria were exposed for 30 min to compounds in 10 mM phosphate buffer containing 5% DMSO prior to addition of 2× Muller-Hinton medium. Bacterial growth was monitored for 12 hours and data were analyzed as described. Determination of MICs was performed by Micromyx, LLC (Kalamazoo, Michigan) according to CLSI standards.

[3] = system: Escherichia coli ATCC 25922; assay: as above; format: cell-based; conditions: Table S3; concentration at which 100% killing occurred, no bacterial regrowth; No = not active
Procedure: as §1

Molecule | Binding on Lipid II? [1] | IC50 (Caco-2) [µM] | active against S.aureus (IC100%) [2] | active against E.coli (IC100%) [3] | cytotoxic for Caco II (C50% survival) (Caco-2) | cytotoxic for Caco II (C50% survival) (Caco-2; Table S3, No = not cytotoxic) | binding to Lipid II compared to wild-type HNP-1 ([1]; 10 µM peptide, 40 RUs 3-Lipid II)
c1ccc(-c2nc(N(c3ccccc3)c3ccccc3)s[n+]2-c2ccccc2)cc1 [Compound 1492-0330, 5-(diphenylamino)-2,3-diphenyl-1,2$l^5,4-thiadiazol-2-ylium] | Yes |  |  |  |  |  | 
CCN(CC)c1ccc(CN2CCN(c3cccc(C(F)(F)F)c3)CC2)cc1 [Compound 5427129, N,N-diethyl-4-({4-[3-(trifluoromethyl)phenyl]-1-piperazinyl}methyl)aniline] | Yes | 192 | (No) | No |  |  | 
CCCCN(CC#Cc1ccc(C#CCN(CCCC)CCCC)cc1)CCCC.Cl.Cl [Compound 5230313, 3,3'-(1,4-phenylene)bis(N,N-dibutyl-2-propyn-1-amine) dihydrochloride] | Yes | 366 | No | No |  |  | 
FC(F)(F)c1cccc(N2CCN(Cc3ccc4c(c3)Cc3ccccc3-4)CC2)c1 [Compound 5418391, 1-(9H-fluoren-2-ylmethyl)-4-[3-(trifluoromethyl)phenyl]piperazine] | No | 159 | No | No |  |  | 
CN(C)c1ccc(C2C=C(c3ccccc3)Oc3ccccc32)cc1 (stereo not shown) [55870/1, N,N-dimethyl-4-(2-phenyl-4H-chromen-4-yl)aniline] | Yes | 25.9 | 250 µM | No |  |  | 
CCCN1CCC(NCc2cccc(C(F)(F)F)c2)CC1 [Compound 5452876, 1-propyl-N-[3-(trifluoromethyl)benzyl]-4-piperidinamine] | No |  | No | No | No |  | 
OC(c1cccc2ccccc12)c1c2ccccc2cc2ccccc12 (stereo not shown) [179415/1, 9-anthryl(1-naphthyl)methanol] | Yes |  | 3,9 µM | No |  | No | 
CCC[N+](CC#CCO)(CC#Cc1ccccc1)CCC [Compound 4636-0141, (4-hydroxybut-2-yn-1-yl)(3-phenylprop-2-yn-1-yl)dipropylazanium] | No |  | No | No | No |  | 
O=C(CSc1nc(-c2ccccc2)c(-c2ccccc2)n1-c1ccccc1)N1CCCc2ccccc21 [ST4098270, 1-(1,2,3,4-tetrahydroquinolin-1-yl)-2-[(1,4,5-triphenyl-1H-imidazol-2-yl)sulfanyl]ethan-1-one] | No |  | No | No | No |  | 
CN1/C(=C/C=C2/SC(=S)N(c3ccccc3)C2=O)C(C)(C)c2ccccc21 [Compound 2101-0102, (5E)-3-phenyl-2-sulfanylidene-5-{2-[(2E)-1,3,3-trimethyl-2,3-dihydro-1H-indol-2-ylidene]ethylidene}-1,3-thiazolidin-4-one] |  |  | No |  | No |  | 
CCN1C(=O)C(c2ccc(O)cc2)(c2ccc(O)cc2)c2ccccc21 [Compound 4896-3423, 1-ethyl-3,3-bis(4-hydroxyphenyl)-2,3-dihydro-1H-indol-2-one] |  | 72.1 | No |  |  |  | 
CCN1C(=CC(C)=Cc2sc3ccc4ccccc4c3[n+]2CC)Sc2ccc3ccccc3c21 [290437/2, 1-ethyl-2-(3-(1-ethylnaphtho[1,2-d][1,3]thiazol-2(1H)-ylidene)-2-methyl-1-propenyl)-1λ5-naphtho[1,2-d][1,3]thiazole] | No | 2.2 |  |  |  |  | 
HNP-1 R24A: single alanine mutant of HNP-1, Arg24 replaced by alanine |  |  |  |  |  |  | maintained significant binding
